Values belong to the molecule of their own block, whether it stands above or below them.
Columns and labels:
AheGH1 [1] = target: T1, AheGH1 (Paenalicyclobacillus herbarius, UniProt A0A8I3B065); assay: spectrophotometric pNPG hydrolysis at […] nm; type: biochemical; conditions: 10 mM pNPG, 50 mM HEPES, pH 7.4, 25 °C; product inhibitor
T1 construct: codon-optimised synthetic gene, C-terminal poly-His tag (pCH93b), E. coli BL21(DE3)
T1 sequence (A0A8I3B065 1-452): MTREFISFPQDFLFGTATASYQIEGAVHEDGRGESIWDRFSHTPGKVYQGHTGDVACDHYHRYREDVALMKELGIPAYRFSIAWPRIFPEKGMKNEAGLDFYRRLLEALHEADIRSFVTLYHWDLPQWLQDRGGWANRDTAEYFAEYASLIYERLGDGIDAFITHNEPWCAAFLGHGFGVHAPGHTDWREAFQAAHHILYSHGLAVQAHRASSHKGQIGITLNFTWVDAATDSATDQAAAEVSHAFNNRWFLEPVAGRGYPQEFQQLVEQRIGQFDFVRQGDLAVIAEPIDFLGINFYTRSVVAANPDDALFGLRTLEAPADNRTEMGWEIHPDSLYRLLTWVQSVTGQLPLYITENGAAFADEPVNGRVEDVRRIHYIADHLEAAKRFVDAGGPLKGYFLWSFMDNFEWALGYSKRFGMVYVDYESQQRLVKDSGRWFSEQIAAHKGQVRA

AheGH1 [2] = target: T1, AheGH1; assay: spectrophotometric p-nitrophenol release at […] nm, substrate inhibition fit; type: biochemical; conditions: 50 mM HEPES, pH 7.4, 25 °C; substrate inhibition constant
purified protein = substrate: O=[N+]([O-])c1ccc(O[C@@H]2O[C@H](CO)[C@@H](O)[C@H](O)[C@H]2O)cc1; assay: purified protein; conditions: 50 mM HEPES, pH 7.4, 25 °C

% activity retained at 10 % (w/v) glucose (AheGH1 [1]): 65%
Molecule: OC[C@H]1OC(O)[C@H](O)[C@@H](O)[C@@H]1O (stereo partly shown) [glucose]

K i (AheGH1 [2]): 37 ± 6 mM
Molecule: O=[N+]([O-])c1ccc(O[C@@H]2O[C@H](CO)[C@@H](O)[C@H](O)[C@H]2O)cc1 [pNPG, p‐nitrophenyl‐β‐D‐glucopyranoside]

B1: AheGH1 (Paenalicyclobacillus herbarius) (protein)
chain: T1 sequence (A0A8I3B065 1-452)
Km (purified protein): 1400 ± 100 µM | kcat (purified protein): 2.7 ± 0.1 s⁻¹

— paper PMC8048572, “Release of Soybean Isoflavones by Using a β‐Glucosidase from Alicyclobacillus herbarius” (Chembiochem, 2020)
